Here are results for 41 molecules from patent US11555012B2 (Nimbus Artemis, Inc., priority 2018, dated 2023).

Where only a bound is given, the exact number is not on record here.

A word on the IC50: it is the concentration needed to halve the response being measured.

For one experiment, the target named is T1, ACL (Homo sapiens (Human), UniProt P53396). Put plainly: ACLY-MDH Coupled Assay.
Settings: not given
Target sequence in this assay (P53396 whole entry, species assumed): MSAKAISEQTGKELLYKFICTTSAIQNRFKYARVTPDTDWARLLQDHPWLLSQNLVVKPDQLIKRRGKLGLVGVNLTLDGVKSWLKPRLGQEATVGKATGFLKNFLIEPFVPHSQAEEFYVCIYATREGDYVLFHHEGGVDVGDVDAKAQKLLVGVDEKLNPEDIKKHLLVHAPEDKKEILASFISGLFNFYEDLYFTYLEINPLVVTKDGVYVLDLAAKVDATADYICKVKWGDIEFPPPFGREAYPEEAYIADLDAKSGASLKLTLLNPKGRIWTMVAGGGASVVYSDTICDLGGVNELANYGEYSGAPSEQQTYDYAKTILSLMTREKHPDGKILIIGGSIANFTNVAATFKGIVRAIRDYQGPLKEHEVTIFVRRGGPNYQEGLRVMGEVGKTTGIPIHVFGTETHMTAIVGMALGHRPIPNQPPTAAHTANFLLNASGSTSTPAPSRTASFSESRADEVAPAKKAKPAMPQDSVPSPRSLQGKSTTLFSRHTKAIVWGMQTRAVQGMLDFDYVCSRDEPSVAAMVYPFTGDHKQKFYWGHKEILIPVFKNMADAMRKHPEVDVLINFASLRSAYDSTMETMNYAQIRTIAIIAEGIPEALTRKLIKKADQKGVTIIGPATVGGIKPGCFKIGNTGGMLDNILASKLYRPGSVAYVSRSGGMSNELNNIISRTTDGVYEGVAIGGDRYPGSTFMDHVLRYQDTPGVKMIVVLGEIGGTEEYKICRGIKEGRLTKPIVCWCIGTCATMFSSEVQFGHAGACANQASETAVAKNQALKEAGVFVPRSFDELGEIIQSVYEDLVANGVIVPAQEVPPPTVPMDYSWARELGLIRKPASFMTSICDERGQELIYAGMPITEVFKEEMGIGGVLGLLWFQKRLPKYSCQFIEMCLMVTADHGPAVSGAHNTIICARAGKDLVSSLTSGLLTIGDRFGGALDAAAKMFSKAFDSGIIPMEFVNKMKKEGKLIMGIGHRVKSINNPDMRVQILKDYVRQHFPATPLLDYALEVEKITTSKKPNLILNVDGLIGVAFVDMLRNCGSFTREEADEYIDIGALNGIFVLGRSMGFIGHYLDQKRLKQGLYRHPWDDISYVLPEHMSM
As to `COc1ccc(-c2ccccc2)cc1NS(=O)(=O)c1cc(C(=O)O)cc(Cl)c1O` [I-2, 3-chloro-4-hydroxy-5-(N-(4-methoxy-[1,1′-biphenyl]-3-yl)sulfamoyl)benzoic Acid], the IC50 lay in the range of 0.5 to 30 µM.
For the molecule `COc1ccc(-c2cccnc2)cc1NS(=O)(=O)c1cc(Cl)cc(Cl)c1O` [I-7, 3,5-dichloro-2-hydroxy-N-(2-methoxy-5-(pyridin-3-yl)phenyl)benzenesulfonamide], the concentration for half-maximal inhibition (IC50) was 0.5 to 30 µM.

A further experiment deals with T1, ACL. Put plainly: ADP-Glo Assay.
Settings: not given
Target sequence in this assay (P53396 other isoform, or with tags, fused parts or gaps isoform P53396-2): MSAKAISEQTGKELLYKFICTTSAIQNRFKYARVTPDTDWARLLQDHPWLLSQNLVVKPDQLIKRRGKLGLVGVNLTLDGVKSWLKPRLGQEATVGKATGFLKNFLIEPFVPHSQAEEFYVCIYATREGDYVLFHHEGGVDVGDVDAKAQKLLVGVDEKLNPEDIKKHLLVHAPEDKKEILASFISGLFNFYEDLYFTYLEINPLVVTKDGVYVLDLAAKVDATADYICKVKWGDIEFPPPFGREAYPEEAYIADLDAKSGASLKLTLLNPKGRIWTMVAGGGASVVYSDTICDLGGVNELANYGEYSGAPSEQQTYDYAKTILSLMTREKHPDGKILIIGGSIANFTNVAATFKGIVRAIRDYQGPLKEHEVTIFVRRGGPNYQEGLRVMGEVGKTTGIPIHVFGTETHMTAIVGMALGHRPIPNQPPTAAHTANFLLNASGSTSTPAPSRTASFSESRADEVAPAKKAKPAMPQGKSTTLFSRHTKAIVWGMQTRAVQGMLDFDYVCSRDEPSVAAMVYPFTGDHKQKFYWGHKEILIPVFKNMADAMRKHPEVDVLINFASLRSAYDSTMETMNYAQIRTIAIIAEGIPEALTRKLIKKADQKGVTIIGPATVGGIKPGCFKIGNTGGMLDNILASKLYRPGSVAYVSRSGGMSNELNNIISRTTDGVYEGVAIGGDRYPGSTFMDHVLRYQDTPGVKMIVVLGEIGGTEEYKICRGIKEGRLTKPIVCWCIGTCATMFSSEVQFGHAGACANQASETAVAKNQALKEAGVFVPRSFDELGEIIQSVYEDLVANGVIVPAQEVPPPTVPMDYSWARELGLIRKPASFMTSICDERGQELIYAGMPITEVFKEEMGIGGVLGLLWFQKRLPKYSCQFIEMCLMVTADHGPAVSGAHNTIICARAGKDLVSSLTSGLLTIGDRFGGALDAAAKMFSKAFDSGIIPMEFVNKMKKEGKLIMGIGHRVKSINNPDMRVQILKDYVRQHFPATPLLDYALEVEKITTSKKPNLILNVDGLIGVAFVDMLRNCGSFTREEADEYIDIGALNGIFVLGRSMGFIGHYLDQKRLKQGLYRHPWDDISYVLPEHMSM
On to `COc1ccc(-c2ccccc2)cc1NS(=O)(=O)c1cc(C(=O)O)cc(Cl)c1O` [I-2, 3-chloro-4-hydroxy-5-(N-(4-methoxy-[1,1′-biphenyl]-3-yl)sulfamoyl)benzoic Acid], for which the IC50 is 0.5 to 20 µM.
Still for that read-out and setting: the same measure for `COc1ccc(-c2cccnc2)cc1NS(=O)(=O)c1cc(Cl)cc(Cl)c1O` [I-7, 3,5-dichloro-2-hydroxy-N-(2-methoxy-5-(pyridin-3-yl)phenyl)benzenesulfonamide]: 0.5 to 20 µM.
On the same count and under the same terms, next, `COc1ccc(-c2ccccc2)cc1N(C)S(=O)(=O)c1cc(C(=O)O)cc(Cl)c1O` [I-426, 3-chloro-4-hydroxy-5-[(2-methoxy-5-phenylphenyl)(methyl)sulfamoyl]benzoic acid]: above 20 µM; `COc1ccc(-c2cccnc2)cc1NS(=O)(=O)c1cc(C(=O)O)cc(Cl)c1O` [I-427, 3-chloro-4-hydroxy-5-(N-(2-methoxy-5-(pyridin-3-yl)phenyl)sulfamoyl)benzoic Acid]: above 20 µM.
Still for that read-out and setting: next, `COC(=O)c1cc(Cl)c(OC)c(S(=O)(=O)Nc2cc(-c3ccccc3)ccc2OC)c1` [I-428, Methyl 3-chloro-4-methoxy-5-(N-(4-methoxy-[1,1′-biphenyl]-3-yl)sulfamoyl)benzoate]: above 20 µM.
`NC(=O)c1ccc(F)c(S(=O)(=O)Nc2cc(-c3ccccc3)ccc2F)c1` [I-429, 4-fluoro-3-(N-(4-fluoro-[1,1′-biphenyl]-3-yl)sulfamoyl)benzamide] had an IC50 above 20 µM.
Still for that read-out and setting: next, `COc1ccc(-c2ccccc2)cc1NS(=O)(=O)c1cc(Cl)cc(C(=O)O)c1OC` [I-430, 5-chloro-2-methoxy-3-(N-(4-methoxy-[1,1′-biphenyl]-3-yl)sulfamoyl)benzoic Acid]: above 20 µM.
Same read-out and setting: next, `COC(=O)c1cc(Cl)cc(S(=O)(=O)Nc2cc(-c3ccccc3)ccc2OC)c1O` [I-431, Methyl 5-chloro-2-hydroxy-3-(N-(4-methoxy-[1,1′-biphenyl]-3-yl)sulfamoyl)benzoate]: above 20 µM.
`COc1ccc(-c2ccccc2)cc1NS(=O)(=O)c1cc(C(N)=O)cc(Cl)c1OC` [I-432, 3-chloro-4-methoxy-5-(N-(4-methoxy-[1,1′-biphenyl]-3-yl)sulfamoyl)benzamide] had an IC50 above 20 µM.
The same measure, in the same setting: the same measure for `CNC(=O)c1cc(Cl)c(OC)c(S(=O)(=O)Nc2cc(-c3ccccc3)ccc2OC)c1` [I-433, 3-chloro-4-methoxy-5-(N-(4-methoxy-[1,1′-biphenyl]-3-yl)sulfamoyl)-N-methylbenzamide]: above 20 µM; for `COc1ccc(-c2ccccc2)cc1NS(=O)(=O)c1cc(C(=O)N(C)C)cc(Cl)c1OC` [I-434, 3-chloro-4-methoxy-5-(N-(4-methoxy-[1,1′-biphenyl]-3-yl)sulfamoyl)-N,N-dimethylbenzamide]: above 20 µM; for `COC(=O)c1cc(Cl)cc(S(=O)(=O)Nc2cc(-c3ccccc3)ccc2OC)c1OC` [I-435, Methyl 5-chloro-2-methoxy-3-(N-(4-methoxy-[1,1′-biphenyl]-3-yl)sulfamoyl)benzoate]: above 20 µM.
On to `COc1ccc(-c2ccccc2)cc1NS(=O)(=O)c1cccc(-c2nnn(C)n2)c1` [I-436, N-(2-methoxy-5-phenylphenyl)-3-(2-methyl-2H-1,2,3,4-tetrazol-5-yl)benzene-1-sulfonamide], for which the IC50 is above 20 µM.
Still for that read-out and setting: next, `COc1ccc(-c2ccccc2)cc1NS(=O)(=O)c1cccc(-c2nnnn2C)c1` [I-437, N-(2-methoxy-5-phenylphenyl)-3-(1-methyl-1H-1,2,3,4-tetrazol-5-yl)benzene-1-sulfonamide]: above 20 µM.
`COc1ccc(-c2ccccc2)cc1NS(=O)(=O)c1cc(C(=O)O)ccc1Cl` [I-438, 4-chloro-3-[(2-methoxy-5-phenylphenyl)sulfamoyl]benzoic acid] gave an IC50 above 20 µM.
`COc1ccc(-c2ccccc2)cc1NS(=O)(=O)c1cc(CC(=O)O)cc(Cl)c1OC` [I-439, 2-[3-chloro-4-methoxy-5-[(2-methoxy-5-phenylphenyl)sulfamoyl]phenyl]acetic Acid] came in with a concentration for half-maximal inhibition (IC50) above 20 µM.
Still for that read-out and setting: the same measure for `CCC(=O)Nc1c(Cl)cc(Cl)cc1S(=O)(=O)Nc1cc(-c2ccccc2)ccc1OC` [I-440, N-[2,4-dichloro-6-[(2-methoxy-5-phenylphenyl)sulfamoyl]phenyl]propanamide]: above 20 µM.
On the same count and under the same terms, the same measure for `COc1ccccc1S(=O)(=O)Nc1cc(-c2ccccc2)ccc1F` [I-441, N-[4-fluoro-[1,1-biphenyl]-3-yl]-2-methoxybenzene-1-sulfonamide]: above 20 µM; for `COc1ccc(-c2ccccc2)cc1NS(=O)(=O)c1cc(-c2nn[nH]n2)ccc1OC` [I-442, 2-methoxy-N-(2-methoxy-5-phenylphenyl)-5-(2H-1,2,3,4-tetrazol-5-yl)benzene-1-sulfonamide]: above 20 µM; for `Cn1ccc(Oc2c(Cl)cc(Cl)cc2S(=O)(=O)Nc2cc(-c3ccccc3)ccc2F)n1` [I-443, 3,5-dichloro-N-(4-fluoro-[1,1′-biphenyl]-3-yl)-2-((1-methyl-1H-pyrazol-3-yl)oxy)benzenesulfonamide]: above 20 µM.
Same read-out and setting: next, `O=C(O)c1cc(Cl)c(O)c(S(=O)(=O)Nc2ccc(F)c(-c3ccccc3)c2F)c1` [I-444, 3-chloro-5-[(2,4-difluoro-3-phenylphenyl)sulfamoyl]-4-hydroxybenzoic acid]: above 20 µM; `O=C(O)c1ccc(-c2ccccc2)cc1NS(=O)(=O)c1cn[nH]c1` [I-445]: above 20 µM.
The molecule `O=C(O)c1cc(Cl)c(O)c(S(=O)(=O)Nc2cc(-c3cc4ccccc4s3)c(F)cc2F)c1` [I-507, 3-(N-(5-(benzo[b]thiophen-2-yl)-2,4-difluorophenyl)sulfamoyl)-5-chloro-4-hydroxybenzoic Acid] gave an IC50 of 0.05 to 0.5 µM.
The molecule `CC#Cc1cc(Cl)ccc1N(C)S(=O)(=O)c1cc(Br)cc(Cl)c1O` [I-516, 5-bromo-3-chloro-N-(4-chloro-2-(prop-1-yn-1-yl)phenyl)-2-hydroxy-N-methylbenzenesulfonamide] returned a half-maximal inhibitory concentration (IC50) of 0.5 to 20 µM.
On the same count and under the same terms, the same measure for `COc1cc(F)c(-c2cc3ccccc3s2)cc1NS(=O)(=O)c1cc(C(=O)O)cc(F)c1O` [I-517, 3-(N-(5-(benzo[b]thiophen-2-yl)-4-fluoro-2-methoxyphenyl)sulfamoyl)-5-fluoro-4-hydroxybenzoic Acid]: 0.5 to 20 µM; for `O=C(Nc1cc(Br)ccc1C(=O)O)c1cc(Cl)cc(Cl)c1` [I-519, 4-bromo-2-(3,5-dichlorobenzamido)benzoic Acid]: 0.5 to 20 µM.
On the same count and under the same terms, the same measure for `O=C(O)c1ccccc1NS(=O)(=O)c1cc(Cl)cc(Cl)c1` [I-522, 2-((3,5-dichlorophenyl)sulfonamido)benzoic acid]: above 20 µM.
Same read-out and setting: next, `CCS(=O)(=O)Nc1ccc(S(=O)(=O)Nc2cc(-c3ccccc3)ccc2F)c(OC)c1` [I-523, 4-(ethylsulfonamido)-N-(4-fluoro-[1,1′-biphenyl]-3-yl)-2-methoxybenzenesulfonamide]: above 20 µM; `CC(C)S(=O)(=O)Nc1ccc(S(=O)(=O)Nc2cc(-c3ccccc3)ccc2F)cc1F` [I-524, 3-fluoro-N-(4-fluoro-[1,1′-biphenyl]-3-yl)-4-((1-methylethyl)sulfonamido)benzenesulfonamide]: above 20 µM.
The molecule `COC(=O)c1ccnc(NS(=O)(=O)c2cc(Cl)cc(Cl)c2O)c1` [I-525, methyl 2-((3,5-dichloro-2-hydroxyphenyl)sulfonamido)isonicotinate] came in with a half-inhibitory concentration (IC50) above 20 µM.
On the same count and under the same terms, next, `Cc1ccc(S(=O)(=O)Nc2cc(-c3ccccc3)ccc2F)c(C)c1OCC(=O)O` [I-526, 2-(3-(N-(4-fluoro-[1,1′-biphenyl]-3-yl)sulfamoyl)-2,6-dimethylphenoxy)acetic acid]: above 20 µM; `Cc1ccc(C(=O)O)c(NS(=O)(=O)c2cc(Cl)cc(Cl)c2)n1` [I-527, 2-((3,5-dichlorophenyl)sulfonamido)-6-methylnicotinic acid]: above 20 µM.
Same read-out and setting: next, `COc1ccc(-c2ccccc2)cc1NS(=O)(=O)c1ccccc1O` [I-528, 2-hydroxy-N-(4-methoxy-[1,1′-biphenyl]-3-yl)benzenesulfonamide]: above 20 µM; `COc1ccc(C(=O)O)cc1S(=O)(=O)Nc1cc(-c2ccccc2)c(F)cc1F` [I-529, 3-(N-(4,6-difluoro-[1,1′-biphenyl]-3-yl)sulfamoyl)-4-methoxybenzoic acid]: above 20 µM; `COC(=O)Cc1ccc(-c2ccccc2)cc1NS(=O)(=O)c1cc(Cl)cc(Cl)c1` [I-530, methyl 2-(3-((3,5-dichlorophenyl)sulfonamido)-[1,1′-biphenyl]-4-yl)acetate]: above 20 µM.
The same measure, in the same setting: next, `O=C(O)c1cc(NC(=O)c2cccc3ncccc23)ccc1Cl` [I-531, 2-chloro-5-(quinoline-5-carboxamido)benzoic acid]: above 20 µM; `Cc1cccc(C(=O)O)c1NS(=O)(=O)c1cc(Cl)cc(Cl)c1` [I-533, 2-((3,5-dichlorophenyl)sulfonamido)-3-methylbenzoic acid]: above 20 µM.
The molecule `O=C(O)c1cc(NC(=O)c2cc(F)cc3nc[nH]c23)ccc1Cl` [I-535, 2-chloro-5-(5-fluoro-1H-benzo[d]imidazole-7-carboxamido)benzoic acid] displayed an IC50 above 20 µM.
Still for that read-out and setting: next, `O=C(O)c1cc(Cl)c(O)c(S(=O)(=O)Nc2cc(-c3ccccc3)ccn2)c1` [I-536]: above 20 µM.

Staying with this experiment, now noted: read-out: ACL-ADP-Glo (IC50); 3 nM ACL, 15 μM ATP, 3 μM CoA, 300 μM Citrate.
As for `CCOC(=O)c1cc(Cl)c(O)c(S(=O)(=O)Nc2cc(-c3cc4ccccc4s3)c(F)cc2OC)c1` [I-506, ethyl 3-(N-(5-(benzo[b]thiophen-2-yl)-4-fluoro-2-methoxyphenyl)sulfamoyl)-5-chloro-4-hydroxybenzoate], the 50% inhibitory concentration (IC50) is below 0.05 µM.
On the same count and under the same terms, next, `CN(C)C(=O)c1cc(Cl)c(O)c(S(=O)(=O)Nc2cc(-c3ccccc3)ccc2C(=O)O)c1` [I-518, 3-((3-chloro-5-(dimethylcarbamoyl)-2-hydroxyphenyl)sulfonamido)-[1,1′-biphenyl]-4-carboxylic Acid]: 0.5 to 20 µM.
